Source: patent US20080318905A1, “Prodrugs and methods of making and using the same” (priority 2006, published 2008)

Legend:
[1] = Solubility in PBS at pH 8; conditions: for Solubility in PBS at pH 8: PBS pH 8, 37° C., levorphanol free base by sonication; for solubility: PBS, 37 °C, pH 8, aqueous buffer, thermodynamic from solid
Protocol: (§1) PBS solutions at various pHs (1.2, 6 and 8) were prepared by adjusting 60-mL volumes of PBS maintained at 37° C. with a dropwise addition of concentrated phosphoric acid and/or 0.01 N NaOH, and monitoring with a pH meter calibrated between pH 4 and 7. […] A 50 μL sample was taken for the t=0 time point. The remaining solution was then divided into five aliquots (175 μL each) in microcentrifuge vials labeled according to sampling time-points. Air-tight sealed vials were then incubated at 37° C. in a temperature-controlled water bath. At each time-point, the appropriate vial was removed from the water bath, and a 50 μL sample drawn for HPLC analysis.

human mu receptor = human mu receptor (Homo sapiens, UniProt P35372); test: Human mu receptor binding (IC50, Ki)
human mu receptor, sequence (P35372 whole entry): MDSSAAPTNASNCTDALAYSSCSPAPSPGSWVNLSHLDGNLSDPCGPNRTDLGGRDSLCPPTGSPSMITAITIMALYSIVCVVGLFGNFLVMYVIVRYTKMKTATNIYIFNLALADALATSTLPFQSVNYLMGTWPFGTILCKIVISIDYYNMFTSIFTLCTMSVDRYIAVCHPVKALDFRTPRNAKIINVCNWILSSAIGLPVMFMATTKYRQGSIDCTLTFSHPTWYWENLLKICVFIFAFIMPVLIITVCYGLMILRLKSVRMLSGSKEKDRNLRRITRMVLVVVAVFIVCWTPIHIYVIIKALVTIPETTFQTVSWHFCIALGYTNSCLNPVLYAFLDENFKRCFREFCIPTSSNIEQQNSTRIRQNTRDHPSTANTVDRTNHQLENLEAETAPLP

[2] = Chemical hydrolysis / aqueous stability in PBS at pH 1.2, 6 and 8, 37° C., HPLC; conditions: 1 mg/mL
Protocol: as §1

[3] = biological target: alkaline phosphatase (EC 3.1.3.1) (Bos taurus, UniProt P19111); test: Enzymatic hydrolysis by alkaline phosphatase at pH 8, 37° C., HPLC
alkaline phosphatase (EC 3.1.3.1), sequence (P19111 20-506 limits assumed): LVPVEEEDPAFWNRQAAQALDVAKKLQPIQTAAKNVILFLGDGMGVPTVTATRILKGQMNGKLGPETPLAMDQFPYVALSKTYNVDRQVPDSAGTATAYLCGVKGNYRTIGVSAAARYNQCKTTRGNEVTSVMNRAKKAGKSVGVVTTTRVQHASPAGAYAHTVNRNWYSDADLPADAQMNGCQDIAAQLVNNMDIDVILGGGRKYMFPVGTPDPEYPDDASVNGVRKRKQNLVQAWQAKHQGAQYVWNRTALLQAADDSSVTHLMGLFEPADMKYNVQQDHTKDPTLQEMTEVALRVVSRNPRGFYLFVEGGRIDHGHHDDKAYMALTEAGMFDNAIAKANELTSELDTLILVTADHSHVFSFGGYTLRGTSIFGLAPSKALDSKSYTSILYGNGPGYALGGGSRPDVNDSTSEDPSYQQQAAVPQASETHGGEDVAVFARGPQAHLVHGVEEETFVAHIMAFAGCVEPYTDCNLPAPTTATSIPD
Protocol: Alkaline Phosphatase (400 units) was added to 10 mL of Alkaline Phosphatase Stabilizing Buffer (APSB; Sigma-Aldrich Catalog #A4955) maintained at 37° C. Solution pH was verified by dropping 25 μL of solution onto calibrated Color-pHast Indicator Strips (pH 2-9, Darmstadt, Germany) and checking the color against the calibration scale. […] At each sampling time point, a 200-μL aliquot was drawn into labeled micro centrifuge tubes, each containing 50 μL of Alkaline Phosphatase Stop Solution (APSS; Sigma-Aldrich Catalog #A5852). Acetonitrile (400 μL) was added to each micro centrifuge tube, vortexed briefly, and centrifuged at 12,000 rpm for 5 min. An aliquot (200 μL) of resulting supernatant was removed from each tube, being careful not to disturb the enzyme pellet at the bottom and transferred to HPLC vials containing low volume inserts.

Compound: CN1CC[C@]23CCCC[C@H]2[C@H]1Cc1ccc(O)cc13 [levorphanol, Levorphanol, reference compound]
- Solubility in PBS at pH 8 [1]: less than 1 mg/mL
- solubility [1]: < 1 mg/mL

Compound: C[N+]1(COP(=O)(O)O)CCC23CCCCC2C1Cc1ccc(O)cc13 (stereo not drawn) [N-phosphonooxymethyl levorphanol, N-Phosphonooxymethyl Levorphanol]
- Solubility in PBS at pH 8 [1]: approximately 137 mg/mL
- solubility [1]: ~137 mg/mL
- IC50 (human mu receptor): 14 nM
- Ki (human mu receptor; human mu receptor, same assay as IC50, read-out: inhibition constant, Ki): 5.7 nM
- Percentage of N-phosphonooxymethyl levorphanol remaining ([2]; pH 1.2 PBS, 0 hours): 100.0
- Percentage of N-phosphonooxymethyl levorphanol remaining ([2]; pH 1.2 PBS, 0.5 hours): 111.5
- Percentage of N-phosphonooxymethyl levorphanol remaining ([2]; pH 1.2 PBS, 1 hour): 104.4
- Percentage of N-phosphonooxymethyl levorphanol remaining ([2]; pH 1.2 PBS, 3 hours): 110.9
- Percentage of N-phosphonooxymethyl levorphanol remaining ([2]; pH 1.2 PBS, 5 hours): 111.1
- Percentage of N-phosphonooxymethyl levorphanol remaining ([2]; pH 1.2 PBS, 23 hours): 110.9
- Percentage of N-phosphonooxymethyl levorphanol remaining ([2]; pH 6 PBS, 0 hours): 100.0
- Percentage of N-phosphonooxymethyl levorphanol remaining ([2]; pH 6 PBS, 0.5 hours): 101.4
- Percentage of N-phosphonooxymethyl levorphanol remaining ([2]; pH 6 PBS, 1 hour): 102.3
- Percentage of N-phosphonooxymethyl levorphanol remaining ([2]; pH 6 PBS, 3 hours): 104.3
- Percentage of N-phosphonooxymethyl levorphanol remaining ([2]; pH 6 PBS, 5 hours): 104.3
- Percentage of N-phosphonooxymethyl levorphanol remaining ([2]; pH 6 PBS, 22 hours): 108.0
- Percentage of N-phosphonooxymethyl levorphanol remaining ([2]; pH 8 PBS, 0 hours): 100.0
- Percentage of N-phosphonooxymethyl levorphanol remaining ([2]; pH 8 PBS, 0.5 hours): 100.6
- Percentage of N-phosphonooxymethyl levorphanol remaining ([2]; pH 8 PBS, 1 hour): 100.3
- Percentage of N-phosphonooxymethyl levorphanol remaining ([2]; pH 8 PBS, 3.5 hours): 99.8
- Percentage of N-phosphonooxymethyl levorphanol remaining ([2]; pH 8 PBS, 6 hours): 100.5
- Percentage of N-phosphonooxymethyl levorphanol remaining ([2]; pH 8 PBS, 24 hours): 103.7
- N-phosphonooxymethyl levorphanol remaining ([3]; alkaline phosphatase, after 30 minutes): no measurable amounts
- share of total peak area that is N-phosphonooxymethyl levorphanol ([3]; alkaline phosphatase, time zero): 1.4%
- time to hydrolyze to levorphanol in the presence of alkaline phosphatase ([3]; pH 8, 40 units AP per mg): ≤ 30 min
